For ten compounds, MIC and MIC against bacillus subcillus ATCC 6633 results are on record in US6831190B1, “Guanidinomethyl cyclohexane carboxylic acid ester derivatives” (Teikoku Chemical Industries Co., Ltd., priority 1994, dated 2004).

Broadly, the MIC is the least concentration at which growth counts as inhibited. A lower MIC goes with greater potency.

Type in all cases: cell-based
For assay [1], the system named is Escherichia coli NIH JC-2. The assay can be described thus: MIC, standard method of Japanese Chemotherapy Academy. Particulars: Objected Strain 3: Escherichia coli NIH JC-2. As to the method: (§1) 1. Minimum Inhibitory Concentration (MIC) was measured in accordance with the standard method of Japanese Chemotherapy Academy (Chemotherapy, 29: 76-79, 1981).
The subject of assay [2] is Helicobacter pylori No. 3. The assay can be described thus: MIC, agar plating dilution, clinical segregation strain. The conditions noted are these: Strain 6: Helicobacter pylori No. 3. As to the method: (§2) Minimum Inhibitory Concentration (MIC) was measured in accordance with the standard method of Japanese Chemotherapy Academy (Chemotherapy, 29: 76-79, 1981). Sensitivity was measured with an agar plating dilution using Brain-Heart Infusion agar (Difco Co.) which was added 0.1% of cyclodextrin. […] of the solutions of the compounds which were obtained in examples of the present invention was prepared by dissolving in dimethylsulfoxide. […] Each of 1 ml of those prepared solutions was dispensed in share, after sterilization, 9 ml of sensitivity measuring medium which is kept at 50° C. was added to each, and they were sufficiently mixed. The mixture was used as a plate for measuring sensitivity. Brain Heart Infusion agar medium (Difco Co.), which was added 0.1% of cyclodextrin, was used as bacteria growing medium, and was cultured under microair at 37° C. for three days, and the number of bacteria thereof was adjusted to about 106/ml. This was used as a bacterial solution for inoculation. The medium was painted in each square about 2 cm with nichromic line loop. The medium was cultured under microair for three days at 37° C. […] The each result is shown at Table 4.

Assay [3] relates to Helicobacter pylori No. 28. Described as above. Particulars: Strain 10: Helicobacter pylori No. 28. How it is done: as §2
The test system of assay [4] is Helicobacter pylori No. 1. The assay is described as above. The conditions noted are these: Strain 4: Helicobacter pylori No. 1. As to the method: as §2
The subject of assay [5] is Helicobacter pylori No. 20. The description is as above. Particulars: Strain 9: Helicobacter pylori No. 20. How it is done: as §2
The test system of assay [6] is Helicobacter pylori No. 2. The description is as above. The conditions noted are these: Strain 5: Helicobacter pylori No. 2. As to the method:
as §2

Assay [7] has as its system Helicobacter pylori No. 4. The assay is described as above. The conditions noted are these: Strain 7: Helicobacter pylori No. 4. How it is done:
as §2

Assay [8] deals with Helicobacter pylori No. 19. The description is as above. The conditions noted are these: Strain 8: Helicobacter pylori No. 19. As to the method: as §2
Assay [9] concerns Helicobacter pylori ATCC 43504. The assay can be described thus: MIC, agar plating dilution (standard method of Japanese Chemotherapy Academy). The conditions noted are these: Objected Strain 1: Helicobacter pylori ATCC 43504. As to the method:
(§3) 1. Minimum Inhibitory Concentration (MIC) was measured in accordance with the standard method of Japanese Chemotherapy Academy (Chemotherapy, 29: 76-79, 1981). Sensitivity was measured with an agar plating dilution using Brain-Heart Infusion agar (Difco Co.) which was added 0.1% of cyclodextrin. […] of the solutions of the compounds which were obtained in examples of the present invention was prepared by dissolving in dimethylsulfoxide. […] Each of 1 ml of those prepared solutions was dispensed in share, after sterilization, 9 ml of sensitivity measuring medium which is kept at 50° C. was added to each, and they were sufficiently mixed. The mixture was used as a plate for measuring sensitivity. Brain Heart Infusion agar medium (Difco Co.), which was added 0.1% of cyclodextrin, was used as bacteria growing medium, and was cultured under microair at 37° C. for three days, and the number of bacteria thereof was adjusted to about 106/ml. This was used as a bacterial solution for inoculation. The medium was painted in each square about 2 cm with nichromic line loop. The medium was cultured under microair for three days at 37° C.

Assay [10] has as its system Helicobacter pylori ATCC 43629. The description is as above. The conditions noted are these: Objected Strain 2: Helicobacter pylori ATCC 43629. As to the method: as §3
For assay [11], the system named is Bacillus subtilis ATCC 6633. As to the kind of experiment: MIC, standard method of Japanese Chemotherapy Academy. Particulars: for MIC against bacillus subcillus ATCC 6633: standard method of Japanese Chemotherapy Academy. How it is done:
as §1
(§4) And MIC of the compounds of Example 3, 36, 8, 14, 17, 21, 41 and 45 were measured.

The subject of assay [12] is Staphylococcus aureus No. 2 (MRSA). The description is as above. The conditions noted are these: Strain 14: Staphylococcus aureus No. 2 (MRSA). As to the method:
as §1, §4

For assay [13], the system named is Staphylococcus aureus 209PJC. The assay is described as above. The conditions noted are these: Strain 11: Staphylococcus aureus 209PJC. As to the method: as §1, §4

For the compound `Cc1ccc(CCOC(=O)c2ccc(-c3ccc(OC(=O)[C@H]4CC[C@H](CNC(=N)N)CC4)cc3)cc2)cc1.Cl` [Example 46, trans-4-guanidinomethyl cyclohexane carboxylic acid[4-[4-[2-(4-methylphenyl)ethyloxycarbonyl)phenyl]phenylester].hydrochloride], the MIC in assay [1] is over 25 µg/mL; in [2], 0.20 µg/mL; in assay [3], 0.39 µg/mL; in [4], 0.39 µg/mL; in [5], 0.20 µg/mL; in assay [6] it was 0.39 µg/mL. In addition, the MIC in assay [7] amounted to 3.13 µg/mL; in [8], 0.39 µg/mL; in assay [9] it was 0.78 µg/mL; in assay [10], 0.78 µg/mL.
As for `Cl.N=C(N)NC[C@H]1CC[C@H](C(=O)Oc2ccc(-c3ccc(C(=O)OCc4ccccc4F)cc3)cc2)CC1` [Example 19, trans-4-guanidinomethyl cyclohexane carboxylic acid [4-[4-(2-fluorobenzyloxycarbonyl)phenyl]phenylester].hydrochloride], the MIC in [1] was over 25 µg/mL; in assay [2] it was 0.20 µg/mL; in assay [4], 0.20 µg/mL; in assay [6], 0.78 µg/mL; in assay [7] it was 0.39 µg/mL; in assay [9], 0.39 µg/mL. The compound further displayed an MIC in [10] of 0.39 µg/mL. The MIC against bacillus subcillus ATCC 6633 in assay [11] is over 25 µg/mL.
Take `Cl.N=C(N)NC[C@H]1CC[C@H](C(=O)Oc2ccc(-c3ccc(C(=O)OCCc4ccccc4)cc3)cc2)CC1` [Example 26, trans-4-guanidinomethyl cyclohexane carboxylic acid[4-[4-(2-phenylethyloxycarbonyl)phenyl]phenylester].hydrochloride]: the MIC in assay [1] is over 25 µg/mL; in assay [2] it was 0.10 µg/mL; in assay [4] it was 0.20 µg/mL; in [6] it was 0.39 µg/mL; in assay [7] it was 0.20 µg/mL; in assay [9] it was 0.39 µg/mL. The MIC in assay [10] is 0.78 µg/mL. The compound also returned an MIC against bacillus subcillus ATCC 6633 in [11] of over 25 µg/mL.
As for `CCOC(=O)c1ccc(Oc2ccc(OC(=O)[C@H]3CC[C@H](CNC(=N)N)CC3)cc2)cc1.Cl` [Example 36, trans-4-guanidinomethyl cyclohexane carboxylic acid[4(4-ethoxycarbonylphenyloxy)phenylester].hydrochloride], the MIC in assay [1] is over 25 µg/mL; in assay [11] (Strain 13: Bacillus subtilis ATCC 6633) it was 25 µg/mL; in assay [12] it was 6.25 µg/mL; in [13], 6.25 µg/mL; in assay [9], 6.25 µg/mL; in assay [10], 6.25 µg/mL.
For `Cc1cccc(COC(=O)c2ccc(-c3ccc(OC(=O)[C@H]4CC[C@H](CNC(=N)N)CC4)cc3)cc2)c1.Cl` [Example 44, trans-4-guanidinomethyl cyclohexane carboxylic acid[4-[4-(3-methylbenzyloxycarbonyl)phenyl]phenylester].hydrochloride], the MIC in assay [1] was over 25 µg/mL; in [2], 0.20 µg/mL; in [3], 0.39 µg/mL; in [4], 0.39 µg/mL; in [5], 0.20 µg/mL; in [6] it was 0.39 µg/mL. The MIC in assay [7] came out at 0.78 µg/mL; in [8] it was 0.20 µg/mL; in assay [9] it was 0.20 µg/mL; in assay [10], 0.20 µg/mL.
For `Cc1ccc(COC(=O)c2ccc(-c3ccc(OC(=O)[C@H]4CC[C@H](CNC(=N)N)CC4)c(Br)c3)cc2)cc1.Cl` [Example 24, trans-4-guanidinomethyl cyclohexane carboxylic acid[2-bromo-4-[4-(4-methylbenzyloxycarbonyl)phenyl]phenylester].hydrochloride], the MIC is over 25 µg/mL in [1]; 0.20 µg/mL in assay [2]; 0.39 µg/mL in [6]; 0.39 µg/mL in assay [7]; 0.39 µg/mL in assay [9]; 0.78 µg/mL in assay [10]. Besides, in assay [11], the MIC against bacillus subcillus ATCC 6633 is over 25 µg/mL.
Take `COc1ccc(COC(=O)c2ccc(-c3ccc(OC(=O)[C@H]4CC[C@H](CNC(=N)N)CC4)cc3)cc2)cc1.Cl` [Example 18, trans-4-guanidinomethyl cyclohexane carboxylic acid [4-[4-(4-methoxybenzyloxy carbonyl)phenyl]phenylester].hydrochloride]: the minimum inhibitory concentration (MIC) was over 25 µg/mL in assay [1]; 0.20 µg/mL in assay [2]; 0.20 µg/mL in [4]; 0.78 µg/mL in assay [6]; 0.39 µg/mL in assay [7]; 0.78 µg/mL in assay [9]. In assay [10], the MIC came to 0.78 µg/mL. The compound also came in with an MIC against bacillus subcillus ATCC 6633 in assay [11] of 25 µg/mL.
Take `Cc1ccccc1COC(=O)c1ccc(-c2ccc(OC(=O)[C@H]3CC[C@H](CNC(=N)N)CC3)cc2)cc1.Cl` [Example 43, trans-4-guanidinomethyl cyclohexane carboxylic acid[4-[4-(2-methylbenzyloxycarbonyl)phenyl]phenylester].hydrochloride]: the MIC was over 25 µg/mL in [1]; 0.20 µg/mL in assay [2]; 0.39 µg/mL in assay [3]; 0.20 µg/mL in assay [4]; 0.39 µg/mL in assay [5]; 0.20 µg/mL in assay [6]. The MIC in assay [7] turned out to be 0.78 µg/mL; in [8] it was 0.10 µg/mL; in assay [9], 0.20 µg/mL; in [10] it was 0.39 µg/mL.
Take `Cc1ccc(COC(=O)c2ccc(-c3ccc(OC(=O)[C@H]4CC[C@H](CNC(=N)N)CC4)cc3)cc2)c(C)c1.Cl` [Example 25, trans-4-guanidinomethyl cyclohexane carboxylic acid[4-[4-(2,4-dimethylbenzyloxycarbonyl)phenyl]phenylester].hydrochloride]: the MIC in assay [1] was over 25 µg/mL; in assay [2], 0.20 µg/mL; in [4], 0.39 µg/mL; in [6] it was 0.39 µg/mL; in [7] it was 0.39 µg/mL; in assay [9], 0.39 µg/mL. The compound further yielded an MIC in [10] of 0.78 µg/mL. Further, in assay [11], the MIC against bacillus subcillus ATCC 6633 is over 25 µg/mL.
Take `Cl.N=C(N)NC[C@H]1CC[C@H](C(=O)Oc2ccc(-c3ccc(C(=O)OCC4CCCCC4)cc3)cc2)CC1` [Example 23, trans-4-guanidinomethyl cyclohexane carboxylic acid [4-(4-cyclohexylmethyloxy carbonylphenyl)phenylester].hydrochloride]: the MIC in assay [1] is over 25 µg/mL; in assay [2] it was 0.20 µg/mL; in assay [4], 0.20 µg/mL; in assay [6] it was 0.39 µg/mL; in assay [7] it was 0.39 µg/mL; in assay [9], 0.20 µg/mL. The compound also displayed an MIC in assay [10] of 0.39 µg/mL. This compound had an MIC against bacillus subcillus ATCC 6633 in assay [11] of 25 µg/mL.
